Results on one compound are retold here after publication PMC7310833, “Structural and biochemical characterization of a novel thermophilic Coh01147 protease” (PLoS ONE, 2020).

This assay deals with T1, protease 1147 (Cohnella sp. A01, UniProt A0A5J6KIY6).
T1 construct: full length, 169 residues, no signal peptide, C-terminal His-tag (pET26b(+)), E. coli BL21 (DE3), about 18 kDa on SDS-PAGE; N-terminus from primer MKKVAFL; Ni-NTA
T1 sequence (A0A5J6KIY6 1-169): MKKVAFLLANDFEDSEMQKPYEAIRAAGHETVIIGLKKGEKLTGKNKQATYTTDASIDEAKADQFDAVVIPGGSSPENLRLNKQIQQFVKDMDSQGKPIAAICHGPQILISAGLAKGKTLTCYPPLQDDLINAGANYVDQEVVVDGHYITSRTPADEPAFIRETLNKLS
Briefly: casein hydrolysis, TCA-soluble A280. Type of assay: biochemical. The conditions noted are these: […] and […] inhibitor; casein substrate; table prints NA, text says completely inhibited; […] C, pH […].

In the case of `CC(C)C[C@H](NC(=O)[C@@H]1O[C@H]1C(=O)O)C(=O)NCCCCN=C(N)N` [E-64, Trans-Epoxysuccinyl-L-leucylamido (4-guanidino) butane], the “relative activity (%)” value is “completely inhibited by IAM, E-64, and leupeptin, which are the typical cysteine protease inhibitors”.
